Reference: US6372790B1, “Pharmaceutical composition comprising a combination of metformin and fibrate, and its use for the preparation of medicines intended to reduce hyperglycaemia” (Merck Patent Gesellschaft mit beschrankter Haftung, priority 1998, dated 2002)

Test system: NIDD STZ rats
Test: Streptozotocin-induced non-insulin-dependent diabetes (NIDD) rat model: glycaemia, cholesterol, triglycerides
Format: in vivo, male Wistar rats
Conditions: for Cholesterol / Glycaemia / Triglycerides: STZ (45 mg/kg) diabetic male Wistar rats, oral treatment at the doses in Table 1, measured 23 days after STZ, mean ± SEM, 10 rats per group
Protocol: Non-insulin-dependent diabetes (NIDD) is induced by injecting streptozotocin into male wistar rats. […] The procedure followed is as follows. […] Two weeks after this treatment, blood is taken and the glycaemia is measured. […] The animals then receive, orally, either metformin alone, or a fibrate alone, or a combination of the two in the doses indicated in Table 1 below. 23 days after the injection of streptozotocin, the animals are sacrificed and the following parameters are determined: glycaemia, cholesterol and triglycerides. […] The Student t test is carried out to evaluate the significance of the results obtained.

Compound | Cholesterol [g/L] | Glycaemia [g/L] | Triglycerides [g/L] | Glycaemia (listed as bezafibrate) [g/L] | Glycaemia (listed as metformin) [g/L] | Effects on the levels of cholesterol and of triglycerides when administered alone (metformin alone, in animals, such as in man)
CC(C)(Oc1ccc(CCNC(=O)c2ccc(Cl)cc2)cc1)C(=O)O [Bezafibrate, bezafibrate] | 0.52 ± 0.05 | 2.20 ± 0.21 | 0.81 ± 0.11 | 2.20 | – | –
CC(C)OC(=O)C(C)(C)Oc1ccc(C(=O)c2ccc(Cl)cc2)cc1 [Fenofibrate, fenofibrate] | 0.45 ± 0.02 | – | 0.61 ± 0.10 | – | – | –
CN(C)C(=N)N=C(N)N [Metformin, metformin] | 0.61 ± 0.03 | 1.74 ± 0.14 | 0.85 ± 0.10 | – | 1.74 | effects on decreasing the levels of cholesterol and of triglycerides
CCOC(=O)C(C)(C)Oc1ccc(Cl)cc1 [Clofibrate, clofibrate] | 0.63 ± 0.03 | 2.58 ± 0.11 | 0.93 ± 0.11 | – | – | –
